The values that follow come from patent US20100249064A1, “METHODS AND COMPOSITIONS FOR TREATING DISEASES AND CONDITIONS INVOLVING HIGHER MOLECULAR WEIGHT HYALURONAN” (University of Chicago, priority 2007, published 2010).

One assay deals with S1P1 and S1P3 Receptor. The experiment in a line: Tyrosine/serine/threonine phosphorylation of S1P receptors. It counts as cell-based, human. The following applies: 100 nM HA. How it is done:
Determination of Tyrosine/Serine/Threonine Phosphorylation of the S1P1 and S1P3 Receptor—Immunoprecipitation of solubilized proteins in IP buffer B (see above) took place with either rabbit anti-S1P1 receptor or mouse anti-S1P3 receptor antibody, which was followed by SDS-PAGE in 4-15% polyacrylamide gels and transfer onto Immobilon™ membranes (Millipore Corp., Bedford, Mass.). Following blockage of nonspecific sites with 5% bovine serum albumin, the blots were incubated with either rabbit anti-S1P1 antibody, mouse anti-S1P3 antibody, mouse anti-phospho-tyrosine, rabbit anti-phospho-serine antibody or rabbit anti-phospho-threonine antibody, and then incubated with horseradish peroxidase (HRP)-labeled goat anti-rabbit or goat anti-mouse IgG. Enhanced chemiluminescence (Amersham Biosciences) for visualization of immunoreactive bands then took place.

A further assay relates to RhoA and Rac. The experiment in a line: Rho family activation assay. It counts as cell-based, human. The note with it: 100 nM HA; for Rac1 activation: LMW-HA 5 min, HMW-HA 5, 15, 30 min. How it is done: Rho Family Activation Assay—The RhoA and Rac activation assays using human lung EC were performed as described (Ren et al., 1999).
Another assay concerns Human pulmonary EC. The experiment in a line: TER, HABP2/C1INH regulation of EC barrier function (Examples 3 and 6). Type of assay: cell-based. The following applies: 100 nM HA or 10 μg/ml purified HABP2. The procedure:
Measurement of transendothelial monolayer electrical resistance (TER). EC were grown to confluence in polycarbonate wells containing evaporated gold microelectrodes, and TER measurements performed using an electrical cell-substrate impedance sensing system obtained from Applied Biophysics (Troy, N.Y.) as previously described in detail (Garcia et al. 2001). TER values from each microelectrode were pooled at discrete time points and plotted versus time as the mean±S.E.
Determination of EC barrier function. Human pulmonary endothelial cells were grown to confluence in polycarbonate wells containing evaporated gold microelectrodes (surface area, 10-3 cm^2) in series with a large gold counter electrode (1 cm^2) connected to a phase-sensitive lock-in amplifier as described previously. Measurements of transendothelial electrical resistance (TER) were performed using an electrical cell-substrate impedance sensing system (ECIS) (Applied BioPhysics Inc.). Briefly, current was applied across the electrodes by a 4,000-Hz AC voltage source with amplitude of 1 V in series with a 1 MS/resistance to approximate a constant current source (˜1 μA). The in-phase and out-of-phase voltages between the electrodes were monitored in real time with the lock-in amplifier and subsequently converted to scalar measurements of transendothelial impedance, of which resistance was the primary focus. TER was monitored for 30 minutes to establish a baseline resistance (R0) which, for pulmonary endothelium, was typically between 8 to 12×10^3Ω (wells with R0<7×10^3Ω were rejected). As cells adhere and spread out on the microelectrode, TER increases (maximal at confluence), whereas cell retraction, rounding, or loss of adhesion was reflected by a decrease in TER. These measurements provide a highly sensitive biophysical assay that indicates the state of cell shape and focal adhesion. Values from each microelectrode were pooled at discrete time points and plotted versus time as the mean±SE of the mean (Garcia et al., 2001).

In a further assay the test system is HPMVEC. Briefly: EC proliferation (CellTiter96 MTS). It counts as cell-based, human. The following applies: 100 nM HA with or without 100 nM VEGF, or siRNA 48 hours then VEGF; 24 h. The procedure: Determination of the role of HMW-HA/CD44 interactions in regulating hyaluronidase activity and angiogenesis in vitro. Human pulmonary microvascular EC (HPMVEC) (Cambrex), grown in EBM-2 complete medium (Cambrex) at 37° C. in a humidified atmosphere of 5% CO2, 95% air, with passages 6-10 used for experimentation was treated with or without 100 nM HMW-HA and/or 100 nM VEGF in the presence or absence of CD44 isoform-specific blocking antibodies (EMD Biosciences), siRNA (scramble, CD44, Hyal-1, Hyal-2, Hyal-3 or Hyal-4) and the potent hyaluronidase inhibitor, L-ascorbic acid 6-hexadecanoate (Botzki et al., 2004) (Sigma). […] Treated EC will either be analyzed for protein expression, hyaluronidase activity or VEGF-induced proliferation, migration or tube formation. […] Cells from the upper and lower chamber were quantitated using the CellTiter96™ MTS assay (Promega, San Luis Obispo, Calif.) and read at 492 nm. % migration was defined as the # of cells in the lower chamber […] the number of cells in both the upper and lower chamber. Each assay was set up in triplicate, repeated at least five times and analyzed statistically by Student's t test (with statistical significance set at P<0.05). […] The in vitro cell proliferation assay was analyzed by measuring increases in cell number using the CellTiter96™ MTS assay (Promega, San Luis Obispo, Calif.) and read at 492 nm. […]

hyaluronan [HMW-HA]: the S1P receptor phosphorylation entry with S1P1 and S1P3 Receptor is reported as “promoted AKT1-mediated threonine phosphorylation of S1P1 receptor”. The Rac1 activation entry in the assay on RhoA and Rac is recorded as “induced Rac1 activation”. Also, in the assay on Human pulmonary EC (listed as High MW hyaluronan), the “change in TER / EC barrier function” value was “increased transendothelial monolayer electrical resistance (TER)”. Further, the “EC proliferation (% Proliferation)” value in the assay with HPMVEC was “inhibited VEGF-induced hyaluronidase expression, EC proliferation (A) and migration (B)”.

As to hyaluronan [LMW-HA, reference compound], the S1P receptor phosphorylation result in the assay with S1P1 and S1P3 Receptor is “induced sequential AKT1-mediated S1P1 and Src/ROCK1/2-mediated S1P3 receptor phosphorylation/activation”. Besides, the RhoA activation result with RhoA and Rac (15-30 min) is recorded as “promoted RhoA activation”. Moreover, the Rac1 activation entry in the assay with RhoA and Rac was “induced Rac1 activation”. Moreover, in the assay on Human pulmonary EC (listed as low MW hyaluronan), the “change in TER / EC barrier function” value was “induced negative TER changes ultimately resulting in EC barrier disruption”. Further, in the assay with HPMVEC, the “EC proliferation (% Proliferation)” value is “promotes EC proliferation and migration”.
